Measured values taken from patent US6710051B1, “Screening method” (Klaus Trier APS, priority 1997, dated 2004).
Where two headings read alike, the source gives them in different places. Marks after values point to notes of the source that are not given here.

Columns and labels:
sclera [1] = assay: Content of collagen specific amino acids in rabbit sclera after long term treatment (HPLC); type: in vivo; parameters: Hydroxylysine Decr. compared to the control / Hydroxyproline Inc. compared to the control / Proline Inc. compared to the control: concentration or dose not given beside the values; details: 3 months treatment; for Hydroxylysine content / Hydroxyproline content / Proline content: dried defatted weight
Source text: (§1) Test animal: Charles River Deutschland Chinchilla Bastard female rabbits.
(§2) Number of animals: 6 test animals and 6 control animals
(§3) Age: approximately 8 weeks at the commencement of the test.
(§4) Weight: 1.4-1.9 kg at the commencement of the test.
(§5) Cages: The animals live in identical cages made of stainless steel (Scanbur), length 1 m, depth 0.52 m, height 0.5 m.
(§6) Amount of food: Increasing from 75 g per day at the commencement of the test up to 130 g after three months.
(§7) Experimental drinking water 1 contained theophyllin in a dose equivalent of 27 mg increasing to 63 mg (added as theophyllin and ethylendiamin in a dose of 33 to 77 mg) daily.
(§8) Experimental drinking water 2 contained fluoxetine (Fontex, Lilly) in a dose equivalent of 2 mg increasing to 5 mg daily.
(§9) Experimental diet 3 was added 7-methylxanthine 500 mg per kg Stanrab standard diet equivalent of a daily 7-methylxanthine dose of […] per day.
(§10) Experimental diet 4 was added theobromine (3,7-dimethylxanthine) 500 mg per kg Stanrab standard diet equivalent of a daily theobromine dose of […] per day.
(§11) Experimental diet 5 was added acetazolamide 500 mg per kg Stanrab standard diet equivalent of a daily acetazolamide dose of […] per day.
(§12) Collection of sample: Sclera biopsies are taken for analysis for proteoglycane content, distribution between the individual glycosaminoglycanes and the content of collagen specific amino acids. Four tests from each animal: Two samples from the front, 5×10 mm along limbus (without cornea), and two samples from the back, punch 10 mm corresponding to the center of the retina. Furthermore, tests are taken for electron microscopy (EM) from two animals in each group.
Samples for analysis for content of collagen specific amino acids are frozen down immediately. The amino acid content is determined by HPLC-chromatography.
The dried tissue with constant weight is minced into very fine particles with a pair of scissors, approximately 20 per piece of tissue. The small flakes from each original piece of tissue ate divided into two equally sized portions, one of which is employed for hydrolysis and the other one is kept for reference. The constant dry weight of each portion is known.
From each resolubilized hydrolysate 3 aliquots of each 8 microliters and 3 aliquots of 40 μl are taken and transferred to separate polypropylene tubes in which 20 microliters of a solution of internal standard substances citrulline and 2 aminobutyric acid were added where the further method takes place.
The taken aliquots from hydrolysate are dried in a vacuum exsiccator at 35° C. over night and subsequently submitted to derivatization with phenylisothiocyanate.
The resulting phenylisothiocarbamates are transferred to the HPLC instrument for separation and quantification. A new set of calibration curves is established, 1 curve for each of the 19 amino acids, prior to the analysis of the samples from one investigation.
The concentration range of standard samples exceed the ranges of amino acid concentrations in the unknowns. Hydroxyproline and proline are quantitated from the 8 microliter aliquots, and hydroxylysine is quantitated from the 40 microliter aliquots.

[2] = humans; cited from earlier work
[3] = rabbits; cited from earlier work
sclera [4] = assay: Content of proteoglycanes in rabbit sclera after long term treatment (alcian blue method); type: in vivo; parameters: Proteoglycanes Decrease compared to the control, anterior sclera / Proteoglycanes Increase compared to the control, anterior sclera / Proteoglycanes Increase compared to the control, posterior sclera / Effect on proteoglycan content of posterior sclera in % compared to control: concentration or dose not given beside the values
Experimental: as §1, §2, §3, §4
Lightness/Darkness cycle: 12/12 hours.
as §5
Food: Stanrab standard diet from Special Diet Services, P.O. Box 705, Witham Essex CM8 3AD, UK (further details, see Table A).
as §6, §7, §8
Experimental diet 2 was added 4.5 g L-cystine per kg Stanrab standard diet equivalent of a daily L-cystine dose of 338 mg increasing to 585 mg per day. With respect to the supplement of L-cystine, the normal intake per day of the standard diet is 218 mg increasing to 377 mg L-cystine.
as §9, §10, §11
Experimental diet 6 was added 4.5 g L-ornithine per kg Stanrab standard diet equivalent of a daily L-ornithine dose of 338 mg increasing to 585 mg per day.
as §12
Analyses: Samples for proteoglycane analysis are frozen down immediately. The samples are analyzed by Wieslab AB, IDEON, S-223 70 Lund, Sweden, by means of a method which has been described by Björnsson, S., Analytical Biochemistry 210, 282-291 (1993). The method comprises extraction by 20 microliters of 4 M guanidine-HCl, 50 Mm sodium acetate per mg wet weight over night by room temperatures. The extracts are centrifuged in order to remove debris. 20 microliters of supernatant are reduced 1/10 in extraction buffer and 20 microliters of reduced supernatant are mixed with 10 microliters of reagent 1 (see Björnsson, S., Analytical biochemistry 210, 282-291 (1993)) on a shaking table for 15 minutes. 200 microliters of reagent 2 are added and the tests are incubated for 60 minutes in order to precipitate the proteoglycanes. The proteoglycane/alcian blue precipitate is transferred to 96-wells MillBlotD apparatus and washed with 2×200 microliters of 40% DMSO, 0.05 M of MgCl2. The colour intensity of the wells are quantitated by microtech E3 scanner and Scan Analysis software (Biosoft, Cambridge, U.K.). Chrondroitine-6-sulphate (Sigma C4384) is used as the calibrator. All samples are analyzed in duplicate.
The results of longterm treatment with each of the 8 substances specified above are shown in Example 2 (treatment for 12 weeks) and Example 4 (treatment for 10 weeks).

eye = details: animal, abnormal postnatal growth of the eye; cited from earlier work

Row | Structure (SMILES) | Hydroxyproline Inc. compared to the control (sclera [1]; anterior sclera) [%] | Proline Inc. compared to the control (sclera [1]; anterior sclera) [%] | Hydroxylysine content (sclera [1]; anterior sclera) | Hydroxyproline content (sclera [1]; anterior sclera) | Proline content (sclera [1]; anterior sclera) | Hydroxylysine Decr. compared to the control (sclera [1]; posterior sclera) [%] | Hydroxyproline Inc. compared to the control (sclera [1]; posterior sclera) [%] | Proline Inc. compared to the control (sclera [1]; posterior sclera) [%] | Hydroxylysine content (sclera [1]; posterior sclera) | Hydroxyproline content (sclera [1]; posterior sclera) | Proline content (sclera [1]; posterior sclera) | half-life period [2] | half-life period [3] | Proteoglycanes Increase compared to the control, anterior sclera (sclera [4]; 3 months treatment) [%] | Proteoglycanes Increase compared to the control, posterior sclera (sclera [4]; 3 months treatment) [%] | Effect on proteoglycan content of posterior sclera in % compared to control (sclera [4]; rabbit, Examples 2 and 4) [%] | Content of proteoglycanes, anterior sclera (sclera [4]; wet weight, 3 months treatment) | Content of proteoglycanes, posterior sclera (sclera [4]; wet weight, 3 months treatment) | axial longitudinal growth (eye)
1 | Cn1c(=O)c2c(ncn2C)n(C)c1=O [Caffeine, 1,3,7-Trimethylxanthine] | 14 | 12 | 39 +/− 19 nanomol/mg tissue | 688 +/− 36* nanomol/mg tissue | 993 +/− 18* nanomol/mg tissue | 14 | 22 | 17 | 37 +/− 16 nanomol/mg tissue | 668 +/− 61 nanomol/mg tissue | 947 +/− 38 nanomol/mg tissue | approximately 5 hours | approximately 1 hour | 19 | 19 | 119 | 3.2 +/− 0.8 μg PG/mg tissue | 3.2 +/− 0.5 μg PG/mg tissue | –
2 | CN1CCN(CC(=O)N2c3ccccc3C(=O)Nc3cccnc32)CC1 [pirenzepine] | – | – | – | – | – | – | – | – | – | – | – | – | – | – | – | – | – | – | inhibited
